The values that follow come from article PMC12133982, “Predominant T-cell epitopes of SARS-CoV-2 restricted by multiple prevalent HLA-B and HLA-C allotypes in Northeast Asia” (Frontiers in Immunology, 2025).

Peptide text beside a SMILES is read from it.

Test [1] addresses HLA-B5801 (Homo sapiens, UniProt P01889, A329T/C349S/D201E/D98Y/E176V/E187L/E204Q/E69T/G107R/I218V/I90N/K202T/L105A/L119I/N104I/N87E/Q89R/Q94S/R106L/R155S/R180L/R86G/S101N/S121R/S35A/S48A/T118I/V127L/V306I/V36M/Y140S/Y91M). Nature of the test: Competitive peptide binding assay, CIR-B5801. Particulars: HMy2.CIR-B5801 cells, reference Cy5-[…], class from inhibition at 5 and 15 μM, flow cytometry MFI; read-out: Binding affinity with HLA-B5801. On the procedure: (§1) Then, competitive peptide binding assays were performed.
Background: Flow cytometry measures light scatter and fluorescence of single cells or particles in a stream.

Test [2] deals with HLA-B5201 (Homo sapiens, UniProt P01889, A329T/A93T/A95T/C349S/D138N/D201E/D98Y/E187L/E204Q/E69T/G107R/I218V/K202T/L105A/L119W/N104I/N87E/Q94N/R106L/R155S/R180L/S101N/S121T/S35A/S48A/V306I/V36M/Y195H/Y91S). Nature of the test: Competitive peptide binding assay, CIR-B5201. Conditions: HMy2.CIR-B5201 cells, reference Cy5-[…], class from inhibition at 5 and 15 μM, flow cytometry MFI; read-out: Binding affinity with HLA-B5201. On the procedure:
as §1

Test [3] deals with HLA-B1502 (Homo sapiens, UniProt P01889, A329T/A93T/A95T/C349S/D201E/D98Y/E187L/E204Q/E69M/E70A/H137Y/K202T/L119I/Q94N/R155S/R180L/S121R/S35A/S48A/T118I/V306I/V36M/Y140S/Y91S). Kind of test: Competitive peptide binding assay, CIR-B1502. Conditions: HMy2.CIR-B1502 cells, reference Cy5-[…], class from inhibition at 5 and 15 μM, flow cytometry MFI; read-out: Binding affinity with HLA-B1502. The procedure: as §1

Test [4] concerns the target HLA-B4601 (Homo sapiens, UniProt P01889, A329T/A93R/C349S/D201E/E100V/E187L/E204Q/E69M/E70A/I90K/K202T/N87E/R155S/R180W/S121R/S35A/S48A/V306I/V36M/Y140S). Kind of test: Competitive peptide binding assay, CIR-B4601. Conditions: HMy2.CIR-B4601 cells, reference Cy5-[…], class from inhibition at 5 and 15 μM, flow cytometry MFI; read-out: Binding affinity with HLA-B4601. On the procedure:
as §1

The target of test [5] is HLA-B5101 (Homo sapiens, UniProt P01889, A329T/A93T/A95T/C349S/D138N/D201E/D98Y/E187L/E204Q/E69T/G107R/I218V/K202T/L105A/L119W/N104I/Q94N/R106L/R155S/R180L/S101N/S121T/S35A/S48A/V306I/V36M/Y195H/Y91F). Kind of test: Competitive peptide binding assay, CIR-B5101. Conditions: HMy2.CIR-B5101 cells, reference Cy5-[…], class from inhibition at 5 and 15 μM, flow cytometry MFI; read-out: Binding affinity with HLA-B5101. On the procedure: as §1

Test [6] deals with HLA-B1501 (Homo sapiens, UniProt P01889, A329T/A93T/A95T/C349S/D201E/D98Y/E187L/E204Q/E69M/E70A/K202T/N87E/Q94N/R155S/R180W/S121R/S35A/S48A/V306I/V36M/Y140S/Y91S). Kind of test: Competitive peptide binding assay, CIR-B1501. Conditions: HMy2.CIR-B1501 cells, reference Cy5-[…], class from inhibition at 5 and 15 μM, flow cytometry MFI; read-out: Binding affinity with HLA-B1501. The procedure:
as §1

In test [7] the target is T1, HLA-B0702 (Homo sapiens, UniProt P01889).
T1 construct: expressed in transfected cells; host or cells: HMy2.CIR
Kind of test: Competitive peptide binding assay, CIR-B0702. Particulars: HMy2.CIR-B0702 cells, reference Cy5-[…], class from inhibition at 5 and 15 μM, flow cytometry MFI. The procedure: as §1

Test [8] addresses HLA-B1302 (Homo sapiens, UniProt P01889, A65T/A93T/A95T/D138N/D201E/D98Y/E176V/E204Q/E69M/E70A/G107R/K202T/L105A/L119W/N104T/N87E/Q94N/R106L/R155S/R169L/R180L/S101N/S121T/S35A/S48T/V127L/V36M/Y140L/Y91S). Nature of the test: Competitive peptide binding assay, CIR-B1302. Conditions: HMy2.CIR-B1302 cells, reference Cy5-MMWYWGPSL, class from inhibition at 5 and 15 μM, flow cytometry MFI; read-out: Binding affinity with HLA-B1302. The procedure: as §1

Test [9] has as its target HLA-B4801 (Homo sapiens, UniProt P01889, A269T/A93T/A95T/D138N/D98Y/E176V/N87E/Q94N/R180L/T167S/W171L/Y91S). Kind of test: Competitive peptide binding assay, CIR-B4801. Particulars: HMy2.CIR-B4801 cells, reference Cy5-[…], class from inhibition at 5 and 15 μM, flow cytometry MFI; read-out: Binding affinity with HLA-B4801. The procedure: as §1

As for `CC[C@H](C)[C@H](NC(=O)CNC(=O)[C@H](CC(=O)O)NC(=O)[C@H](CCCCN)NC(=O)[C@H](CC(N)=O)NC(=O)[C@H](C)NC(=O)CN)C(=O)N[C@H](C(=O)N[C@@H](Cc1c[nH]c2ccccc12)C(=O)O)[C@@H](C)CC` [Epitope Y301] (H-GANKDGIIW-OH; N-terminus and C-terminus assumed), the IC50 was less than 5 µM in [1]; greater than 15 µM in test [2]; greater than 15 µM in test [3]; 5 to 15 µM in test [4]; greater than 15 µM in [5]; greater than 15 µM in test [6]. The IC50 is 5 to 15 µM in test [7], greater than 15 µM in test [8] and greater than 15 µM in test [9].
